The text below walks through data of patent US20160138049A1, “OXYGEN-TOLERANT CoA-ACETYLATING [sequence] DEHYDROGENASE CONTAINING PATHWAY FOR BIOFUEL PRODUCTION” (The Regents of the University of California, priority 2013, published 2016).

Data set [1] addresses Porphyromonas gingivalis PduP, CoA-acylating propionaldehyde dehydrogenase (PduP_P.gin, YP_001928839, SEQ ID NO:51 and 52), poly-His6 tagged (Porphyromonas gingivalis, UniProt B2RIP7). Briefly: Kinetic parameters of PduP (CoA-acylating aldehyde dehydrogenase), NADH depletion at 340 nm. Particulars: for kcat: pH 7.15, 30° C., 500 μM NADH, 1 mM DTT, acyl-CoA 0.03 mM to 2 mM. The protocol:
(§1) Protein purification was done by using His-Spin Protein miniprep purification kit from Zymo following manufacturer's manual. Overnight culture of E. coli strain BL-21(DE3) harboring different pCDF-pdup plasmid was used to inoculate fresh 20 ml LB. The newly inoculated culture was incubated at 37° C. until OD600 nm reaches 0.6 which was then induced with 1 mM IPTG. The induced cultures were then incubated overnight in 30° C. rotary shaker to allow protein expression. The cultures were then harvested by centrifugation at 4,300×g for 20 min. The pellet was then resuspended with 1 mL of Zymo His-binding buffer and mixed with 1 mL of 0.1 mm glass beads (Biospec). The sample was then homogenated using TissueLyser II (Quiagen).
(§2) Enzyme assays were conducted by using Bio-Tek PowerWave XS microplate spectrophotometer. CoA-acylating aldehyde dehydrogenase activity was measured by the decrease of absorbance at 340 nm, corresponding to depletion of NADH. […] For determining specific activity for other chain length acyl-CoA, 500 μM was used. The mixture excluding acyl-CoA was incubated for 5 minutes at 30° C. The addition of the acyl-CoA initiated the reaction. kcat and Km were determined by nonlinear regression fitting to Michaelis-Menten equation using graphing software Origin.
(§3) To characterize these PduP homologues, plasmids harboring individual pduP genes were constructed with a poly-His6 tag (plasmids pCDF-pduP_ahyd, pCDF-pdup_kpne, pCDF-pdup_lbre, pCDF-pdup_lmon, pCDF-pdup_sent, and pCDF-pdup_pgin). PduP homologues were then purified under aerobic condition without cleaving off His tags. The activities of the enzymes were determined using acyl-CoA with different chain lengths, and the disappearance of NADH was monitored.
(§4) The efficiency of these PduP homologues were assessed.

Data set [2] deals with Listeria monocytigenes PduP, CoA-acylating propionaldehyde dehydrogenase (PduP_L.mon, NP_464690, SEQ ID NO:49 and 50), poly-His6 tagged (Listeria monocytogenes, UniProt Q8Y7V4). The data set is described as above. To be noted: for kcat: pH 7.15, 30° C., 500 μM NADH, 1 mM DTT, acyl-CoA 0.03 mM to 2 mM. The protocol: as §1, §2, §3, §4
The target of data set [3] is Klebsiella pneumoniae PduP, CoA-acylating propionaldehyde dehydrogenase (PduP_K.pne, YP_001336844, SEQ ID NO:45 and 46), poly-His6 tagged (Klebsiella pneumoniae, UniProt A0ACD7U6D7). Described as above. To be noted: for kcat: pH 7.15, 30° C., 500 μM NADH, 1 mM DTT, acyl-CoA 0.03 mM to 2 mM. The procedure:
as §1, §2, §3, §4

In data set [4] the target is Salmonella enterica PduP, CoA-acylating propionaldehyde dehydrogenase (PduP_S.ent, AAD39015, SEQ ID NO:33 and 34), poly-His6 tagged (Salmonella enterica, UniProt Q9XDN1). The description is as above. Particulars: for kcat: pH 7.15, 30° C., 500 μM NADH, 1 mM DTT, acyl-CoA 0.03 mM to 2 mM. The procedure: as §1, §2, §3, §4
Data set [5] deals with T1, Lactobacillus brevis PduP, CoA-acylating propionaldehyde dehydrogenase (PduP_L.bre, YP_795711, SEQ ID NO:47 and 48), poly-His6 tagged (Levilactobacillus brevis, UniProt Q03Q42).
T1 sequence (Q03Q42 1-477): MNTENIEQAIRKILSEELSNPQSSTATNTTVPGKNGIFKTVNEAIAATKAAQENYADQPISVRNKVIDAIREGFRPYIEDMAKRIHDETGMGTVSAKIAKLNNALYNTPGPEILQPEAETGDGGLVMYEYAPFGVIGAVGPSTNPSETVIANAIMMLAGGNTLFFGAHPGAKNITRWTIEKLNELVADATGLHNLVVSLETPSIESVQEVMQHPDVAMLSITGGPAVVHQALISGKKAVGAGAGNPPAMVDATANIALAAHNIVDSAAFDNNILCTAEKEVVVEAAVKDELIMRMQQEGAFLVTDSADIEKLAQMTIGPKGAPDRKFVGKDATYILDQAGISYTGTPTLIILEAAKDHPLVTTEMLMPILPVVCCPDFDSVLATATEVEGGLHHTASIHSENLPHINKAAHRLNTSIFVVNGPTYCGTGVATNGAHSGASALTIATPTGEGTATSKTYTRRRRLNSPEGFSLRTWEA
Described as above. To be noted: for kcat: pH 7.15, 30° C., 500 μM NADH, 1 mM DTT, acyl-CoA 0.03 mM to 2 mM. The class given is biochemical. The procedure: as §1, §2, §3, §4

Data set [6] deals with S. elongatus strain BUOH-SE. The protocol:
S. elongatus PCC7942 cells were grown according to the procedure in “culture medium and condition”. Once growth reached OD730 about 2, the culture was diluted to OD730 of 0.1 with 50 mL fresh BG11 medium containing 50 mM NaHCO3 and appropriate antibiotics. Then, various amounts of n-butanol were added into the culture to achieve the desired concentration (0, 250, 500, 750, and 1000 mg/L). Growth was measured daily. Every two days, 5 mL of culture was removed and 5 mL fresh BG-11 containing 500 mM NaHCO3, appropriate amounts of antibiotics and n-butanol was added back to the culture to ensure sufficient carbon supply.

For data set [7], the system named is S. elongatus strain BUOH-SE. As to the kind of experiment: n-Butanol toxicity test (growth). Type of data set: cell-based, Synechococcus elongatus PCC 7942. The procedure: Growth was measured daily.
Data set [8] can be described thus: Substrate chain length specificity of PduP. To be noted: acyl-CoA chain lengths C2 to C12. Type of data set: biochemical. The protocol: FIG. 3A-B Substrate chain length specificity of CoA-acylating aldehyde dehydrogenases, PduP. A) Specific activity of different PduP (pmol min^−1 mg^−1). B) Relative activity of PduP. Specific activity was determined with substrate concentration of 1 mM acyl-CoA, 500 uM NADH, 1 mM DTT in 50 mM potassium phosphate buffer at pH 7.15 at 30° C.
as §2, §3

The nature of data set [9]: CoA-acylating aldehyde dehydrogenase (PduP) assay, butyryl-CoA reduction. Type of data set: biochemical. To be noted: purified under aerobic condition; 500 μM NADH, 1 mM DTT, pH 7.15, 30° C. The protocol: as §1, §2, §3, §4
Data set [10] deals with E. coli strain JCL166. As to the kind of experiment: E. coli anaerobic growth rescue with PduP and n-butanol pathway. Type of data set: cell-based. Particulars: GC of culture medium. The procedure: Cells of E. coli strain JCL166 and its derivatives were cultured overnight in LB with appropriate antibiotics at 37° C. Overnight cultures (3 μL) were used to inoculate 3 mL of fresh LB media supplemented with 1% glucose and appropriate antibiotics (100 μg/mL ampicillin and 50 μg/mL kanamycin) and 0.1 mM IPTG in 10 mL BD vacutainers. A needle with Millipore PES filter was used to pierce through the rubber cap of the culture. The headspace of these cultures was then purged several times with 95% N2/5% H2 gas using an anaerobic chamber (Coy Lab Products, Grass Lake, Mich.). The needle with filter was removed in anaerobic chamber. These anaerobic cultures were then taken out of anaerobic chamber and incubated in 37° C. rotary shaker. Culture was analyzed 24 hours later for cell density and alcohol content measurement.
These PduP homologues were tested for n-butanol production utilizing an anaerobic growth rescue assay. E. coli strain JCL 166 (ΔadhE, ΔldhA, ΔfrdB) contains gene knock-outs for mixed acid fermentation. Fermentation pathways are essential for E. coli to recycle NADH back into to NAD^+ for the Embden-Meyerhof-Parnas pathway to continue (FIG. 2A). […] The culture medium of these anaerobically grown cultures were analyzed for alcohol production (FIG. 2C) using gas chromatography (GC).

Substrate in data set [11]: CC(=O)SCCNC(=O)CCNC(=O)[C@H](O)C(C)(C)COP(=O)(O)OP(=O)(O)OC[C@H]1O[C@@H](n2cnc3c(N)ncnc32)[C@H](O)[C@@H]1OP(=O)(O)O
Briefly: purified protein, by the assay type. Particulars: other: pH 7.15, 30° C., 500 μM NADH, 1 mM DTT, acyl-CoA 0.03 mM to 2 mM.

Substrate in data set [12]: CCCC(=O)SCCNC(=O)CCNC(=O)[C@H](O)C(C)(C)COP(=O)(O)OP(=O)(O)OC[C@H]1O[C@@H](n2cnc3c(N)ncnc32)[C@H](O)[C@@H]1OP(=O)(O)O
Briefly: purified protein, by the assay type. Particulars: other: pH 7.15, 30° C., 500 μM NADH, 1 mM DTT, acyl-CoA 0.03 mM to 2 mM.

Setting [13] is: kcat/Km butyryl-CoA over kcat/Km acetyl-CoA.

Like-named read-outs stand apart in the source and are kept apart here.

Sequence of Porphyromonas gingivalis PduP, CoA-acylating propionaldehyde dehydrogenase (PduP_P.gin, YP_001928839, SEQ ID NO:51 and 52), poly-His6 tagged (B2RIP7 entry or part of it): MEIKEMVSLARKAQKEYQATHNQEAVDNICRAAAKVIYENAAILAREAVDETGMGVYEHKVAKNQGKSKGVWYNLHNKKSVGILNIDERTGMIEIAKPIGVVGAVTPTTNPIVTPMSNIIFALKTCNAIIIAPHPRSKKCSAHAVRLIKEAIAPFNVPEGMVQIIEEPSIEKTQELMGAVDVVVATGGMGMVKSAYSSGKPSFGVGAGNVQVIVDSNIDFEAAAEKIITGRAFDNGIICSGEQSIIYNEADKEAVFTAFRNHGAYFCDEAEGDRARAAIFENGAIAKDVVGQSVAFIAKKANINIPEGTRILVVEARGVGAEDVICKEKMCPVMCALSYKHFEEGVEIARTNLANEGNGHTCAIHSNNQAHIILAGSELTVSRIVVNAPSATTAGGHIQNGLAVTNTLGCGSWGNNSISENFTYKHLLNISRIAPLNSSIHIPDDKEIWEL
Sequence of Salmonella enterica PduP, CoA-acylating propionaldehyde dehydrogenase (PduP_S.ent, AAD39015, SEQ ID NO:33 and 34), poly-His6 tagged (Q9XDN1 whole entry): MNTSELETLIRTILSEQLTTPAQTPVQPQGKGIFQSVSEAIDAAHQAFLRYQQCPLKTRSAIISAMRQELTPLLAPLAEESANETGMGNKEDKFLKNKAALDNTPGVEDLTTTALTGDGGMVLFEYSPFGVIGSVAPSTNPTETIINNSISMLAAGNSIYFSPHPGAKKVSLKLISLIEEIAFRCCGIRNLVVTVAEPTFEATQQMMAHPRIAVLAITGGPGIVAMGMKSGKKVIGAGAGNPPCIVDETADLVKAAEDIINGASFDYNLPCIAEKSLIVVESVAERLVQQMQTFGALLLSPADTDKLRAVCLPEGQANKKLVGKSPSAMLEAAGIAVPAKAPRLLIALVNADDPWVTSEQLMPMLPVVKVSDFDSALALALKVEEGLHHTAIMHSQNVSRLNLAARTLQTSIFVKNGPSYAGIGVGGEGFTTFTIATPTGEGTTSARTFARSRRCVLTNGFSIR
Sequence of Listeria monocytigenes PduP, CoA-acylating propionaldehyde dehydrogenase (PduP_L.mon, NP_464690, SEQ ID NO:49 and 50), poly-His6 tagged (Q8Y7V4 entry or part of it): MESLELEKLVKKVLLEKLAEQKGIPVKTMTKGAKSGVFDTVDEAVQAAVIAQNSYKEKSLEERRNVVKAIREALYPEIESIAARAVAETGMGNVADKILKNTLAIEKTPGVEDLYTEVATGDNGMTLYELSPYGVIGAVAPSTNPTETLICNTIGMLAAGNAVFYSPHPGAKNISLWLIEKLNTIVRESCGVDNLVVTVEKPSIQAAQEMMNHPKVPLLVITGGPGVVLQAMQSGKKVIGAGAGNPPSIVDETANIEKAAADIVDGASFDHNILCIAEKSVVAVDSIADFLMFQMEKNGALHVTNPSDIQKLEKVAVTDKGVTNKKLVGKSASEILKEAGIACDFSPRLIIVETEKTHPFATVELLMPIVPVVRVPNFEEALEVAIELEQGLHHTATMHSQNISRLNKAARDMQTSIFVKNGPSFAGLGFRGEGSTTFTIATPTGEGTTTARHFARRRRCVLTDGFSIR

What is called kcat is the maximal rate divided by the concentration of active sites. In the case of `CCCC(=O)SCCNC(=O)CCNC(=O)[C@H](O)C(C)(C)COP(=O)(O)OP(=O)(O)OC[C@H]1O[C@@H](n2cnc3c(N)ncnc32)[C@H](O)[C@@H]1OP(=O)(O)O` [Butyryl-CoA, butyryl-CoA], the “Ratio C4:C2 (butyryl-CoA to acetyl-CoA catalytic efficiency ratio)” value in [1] (setting [13]) is given as 0.6; in data set [2] (setting [13]), 1.4; in data set [3] (setting [13]) it was 5; in [4] (setting [13]), 6.8; in data set [5] (setting [13]) it was 2. Also, the kcat in [1] was determined as 0.19 ± 0.02 s⁻¹; in [2], 11.99 ± 1.56 s⁻¹; in [3] it was 7.02 ± 0.64 s⁻¹; in [4], 25.38 ± 1.81 s⁻¹; in data set [5], 3.37 ± 0.19 s⁻¹.
In the case of `CCCCO` [n-butanol], the “growth of S. elongatus strain BUOH-SE” value in data set [6] (750 mg/L of n-butanol in culture medium) was “visible growth retardation”; in data set [6] (1 g/L of n-butanol) it was “cell growth is inhibited”; in data set [7] (750 mg/L n-butanol in culture medium) it was “visible growth retardation”; in data set [7] (1 g/L n-butanol), “cell growth is inhibited”.
On to `CC(=O)SCCNC(=O)CCNC(=O)[C@H](O)C(C)(C)COP(=O)(O)OP(=O)(O)OC[C@H]1O[C@@H](n2cnc3c(N)ncnc32)[C@H](O)[C@@H]1OP(=O)(O)O` [Acetyl-CoA, acetyl-CoA], for which the kcat is 0.08 ± 0.01 s⁻¹ in [1]; 11.33 ± 0.97 s⁻¹ in [2]; 4.63 ± 0.19 s⁻¹ in data set [3]; 14.81 ± 1.00 s⁻¹ in data set [4]; 0.26 ± 0.10 s⁻¹ in data set [5].

B1: K. pne: PduP homologue from Klebsiella pneumoniae, YP_001336844; SEQ ID NO:45 and 46 (protein, listed as Klebsiella pneumoniae)
chain: MNTAELETLIRTILSEKLAPTPPAPQQEQGIFCDVGSAIDAAHQAFLRYQQCPLKTRSAIISALRETLAPELATLAEESATETGMGNKEDKYLKNKAALENTPGIEDLTTSALTGDGGMVLFEYSPFGVIGAVAPSTNPTETIINNSISMLAAGNSVYFSPHPGAKKVSLKLIARIEEIAYRCSGIRNLVVTVAEPTFEATQQMMSHPLIAVLAITGGPGIVAMGMKSGKKVIGAGAGNPPCIVDETADLVKAAEDIISGAAFDYNLPCIAEKSLIVVASVADRLIQQMQDFDALLLSRQEADTLRAVCLPDGAANKKLVGKSPAALLAAAGLAVPPRPPRLLIAEVEANAPWVTCEQLMPVLPIVRVADFDSALALALRVEEGLHHTAIMHSQNVSRLNLAARTLQTSIFVKNGPSYAGIGVGGEGFTTFTIATPTGEGTTSARTFARLRRCVLTNGFSIR
In the case of B1, the “Acyl-CoA substrate favoured (highest specific activity)” value in data set [8] was “highest for propionyl-CoA reduction”. Further, in [9], the “Specific activity for butyryl-CoA reduction” value was 8.9 ± 4.6 µmol/min/mg. In addition, the “Alcohol production from the growth rescue broth, n-butanol versus ethanol” value in [10] was “more n-butanol than ethanol”.

B2: Lactobacillus brevis PduP, CoA-acylating propionaldehyde dehydrogenase (PduP_L.bre, YP_795711, SEQ ID NO:47 and 48), poly-His6 tagged (Levilactobacillus brevis … (protein)
chain: T1 sequence (Q03Q42 1-477)
What is called Km is the substrate concentration at which the rate is half of its maximum. Take B2: the Michaelis constant (Km) in [11] was determined as 76.0 ± 38.2 µM; in data set [12], 534.3 ± 59.8 µM. For the same molecule, the “Acyl-CoA substrate favoured (highest specific activity)” value in data set [8] is on record as “hexanoyl-CoA”. Moreover, the “Specific activity for butyryl-CoA reduction” value in data set [9] stood at 2.5 ± 0.2 µmol/min/mg. In addition, in data set [10], the “Alcohol production from the growth rescue broth, n-butanol versus ethanol” value was “more n-butanol than ethanol”.
